Target: T1, ΔF508-CFTR (Homo sapiens, UniProt P13569, DEL508-508)
T1 construct: expressed in transfected cells
Test: ΔF508-CFTR correction, membrane potential optical (FRET/VIPR) assay
Assay type: cell-based
Settings: NIH3T3 mouse fibroblasts stably expressing ΔF508-CFTR; for Emax: read-out: % Efficacy
Description: Assays for Detecting and Measuring ΔF508-CFTR Correction Properties of Compounds
Membrane potential optical methods for assaying ΔF508-CFTR modulation properties of compounds
The optical membrane potential assay utilized voltage-sensitive FRET sensors described by Gonzalez and Tsien (See Gonzalez, J. E. and R. Y. Tsien (1995) “Voltage sensing by fluorescence resonance energy transfer in single cells” Biophys J 69(4): 1272-80, and Gonzalez, J. E. and R. Y. Tsien (1997) “Improved indicators of cell membrane potential that use fluorescence resonance energy transfer” Chem Biol 4(4): 269-77) in combination with instrumentation for measuring fluorescence changes such as the Voltage/Ion Probe Reader (VIPR) (See Gonzalez, J. E., K. Oades, et al. (1999) “Cell-based assays and instrumentation for screening ion-channel targets” Drug Discov Today 4(9): 431-439).
These voltage sensitive assays are based on the change in fluorescence resonant energy transfer (FRET) between the membrane-soluble, voltage-sensitive dye, DiSBAC2(3), and a fluorescent phospholipid, CC2-DMPE, which is attached to the outer leaflet of the plasma membrane and acts as a FRET donor. Changes in membrane potential (Vm) cause the negatively charged DiSBAC2(3) to redistribute across the plasma membrane and the amount of energy transfer from CC2-DMPE changes accordingly. The changes in fluorescence emission were monitored using VIPR™ II, which is an integrated liquid handler and fluorescent detector designed to conduct cell-based screens in 96- or 384-well microtiter plates.
1. Identification of Correction Compounds
To identify small molecules that correct the trafficking defect associated with ΔF508-CFTR; a single-addition HTS assay format was developed. The cells were incubated in serum-free medium for 16 hrs at 37° C. in the presence or absence (negative control) of test compound. As a positive control, cells plated in 384-well plates were incubated for 16 hrs at 27° C. to “temperature-correct” ΔF508-CFTR. The cells were subsequently rinsed 3× with Krebs Ringers solution and loaded with the voltage-sensitive dyes. To activate ΔF508-CFTR, 10 μM forskolin and the CFTR potentiator, genistein (20 μM), were added along with Cl^−-free medium to each well. The addition of Cl^−-free medium promoted Cl^− efflux in response to ΔF508-CFTR activation and the resulting membrane depolarization was optically monitored using the FRET-based voltage-sensor dyes.
NIH3T3 mouse fibroblasts stably expressing ΔF508-CFTR are used for optical measurements of membrane potential. The cells are maintained at 37° C. in 5% CO2 and 90% humidity in Dulbecco's modified Eagle's medium supplemented with 2 mM glutamine, 10% fetal bovine serum, 1×NEAA, β-ME, 1× pen/strep, and 25 mM HEPES in 175 cm^2 culture flasks. For all optical assays, the cells were seeded at 30,000/well in 384-well matrigel-coated plates and cultured for 2 hrs at 37° C. before culturing at 27° C. for 24 hrs for the potentiator assay. For the correction assays, the cells are cultured at 27° C. or 37° C. with and without compounds for 16-24 hours Electrophysiological Assays for assaying ΔF508-CFTR modulation properties of compounds

T1 sequence (P13569 with tags, fused parts or gaps DEL508-508): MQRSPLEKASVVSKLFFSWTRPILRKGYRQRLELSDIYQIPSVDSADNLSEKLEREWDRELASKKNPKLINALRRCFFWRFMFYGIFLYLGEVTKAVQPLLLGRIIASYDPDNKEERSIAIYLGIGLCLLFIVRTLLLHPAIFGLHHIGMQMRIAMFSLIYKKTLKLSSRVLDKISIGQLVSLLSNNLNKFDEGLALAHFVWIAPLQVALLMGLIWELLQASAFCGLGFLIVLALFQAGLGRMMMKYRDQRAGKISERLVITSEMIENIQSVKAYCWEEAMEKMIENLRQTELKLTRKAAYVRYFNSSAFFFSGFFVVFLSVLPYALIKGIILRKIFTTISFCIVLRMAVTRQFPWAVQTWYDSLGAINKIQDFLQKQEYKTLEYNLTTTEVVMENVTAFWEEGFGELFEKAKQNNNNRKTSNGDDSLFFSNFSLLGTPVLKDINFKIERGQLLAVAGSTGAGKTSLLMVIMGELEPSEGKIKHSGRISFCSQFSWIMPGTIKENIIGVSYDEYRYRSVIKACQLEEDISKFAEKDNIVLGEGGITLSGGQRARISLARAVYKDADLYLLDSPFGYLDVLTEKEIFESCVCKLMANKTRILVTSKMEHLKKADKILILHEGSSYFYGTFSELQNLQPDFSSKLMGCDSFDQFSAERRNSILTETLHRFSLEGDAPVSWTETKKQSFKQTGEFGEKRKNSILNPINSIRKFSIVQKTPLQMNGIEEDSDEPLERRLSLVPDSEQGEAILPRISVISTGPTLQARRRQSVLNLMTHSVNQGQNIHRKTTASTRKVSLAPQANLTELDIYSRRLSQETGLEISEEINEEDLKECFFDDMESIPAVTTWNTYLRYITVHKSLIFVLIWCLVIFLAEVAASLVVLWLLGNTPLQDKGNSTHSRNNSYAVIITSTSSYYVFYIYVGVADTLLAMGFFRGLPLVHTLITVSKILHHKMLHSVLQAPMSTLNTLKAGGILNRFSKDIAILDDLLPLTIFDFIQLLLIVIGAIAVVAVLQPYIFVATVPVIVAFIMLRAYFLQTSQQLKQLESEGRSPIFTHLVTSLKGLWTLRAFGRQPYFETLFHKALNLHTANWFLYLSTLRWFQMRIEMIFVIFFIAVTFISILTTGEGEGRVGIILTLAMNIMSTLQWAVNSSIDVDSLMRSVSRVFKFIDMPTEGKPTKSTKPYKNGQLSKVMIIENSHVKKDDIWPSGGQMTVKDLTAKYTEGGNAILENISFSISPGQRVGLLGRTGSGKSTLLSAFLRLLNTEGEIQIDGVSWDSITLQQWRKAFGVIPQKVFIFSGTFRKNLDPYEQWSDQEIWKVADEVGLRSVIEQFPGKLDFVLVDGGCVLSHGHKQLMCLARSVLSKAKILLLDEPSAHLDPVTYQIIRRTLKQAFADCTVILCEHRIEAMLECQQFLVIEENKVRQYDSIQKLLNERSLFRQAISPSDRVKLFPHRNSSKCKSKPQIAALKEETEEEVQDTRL

| Structure (SMILES) | EC50 [nM] | Emax [%] |
| --- | --- | --- |
| Cc1ccc(NC(=O)C2(c3ccc4c(c3)COC4)CC2)nc1-c1c[nH]c(=O)c(C)c1 [Compound 59] | 2000 to 5000 | 50 to 100 |
| Cc1ccc(NC(=O)C2(c3ccc4c(c3)OC(F)(F)O4)CC2)nc1-c1cc(Cl)c[nH]c1=O [Compound 85] | < 2000 | > 100 |
| Cc1c[nH]c(=O)c(-c2nc(NC(=O)C3(c4ccc5c(c4)OC(F)(F)O5)CC3)cc(C)c2C)c1 [Compound 91] | < 2000 | > 100 |
| O=C(Nc1cccc(-c2ccc[nH]c2=O)n1)C1(c2ccc3c(c2)OC(F)(F)O3)CC1 [Compound 51] | < 2000 | > 100 |
| COc1ccc(C2(C(=O)Nc3ccc(C)c(-c4cccnc4OC)n3)CC2)cc1 [Compound 7] | < 2000 | 50 to 100 |
| Cc1ccc(NC(=O)C2(c3ccc4c(c3)OC(F)(F)O4)CC2)nc1-c1ccc(=O)[nH]c1O [Compound 28] | < 2000 | 50 to 100 |
| COc1ccc(-c2cccc(NC(=O)C3(c4ccc5c(c4)OCO5)CC3)n2)cn1 [Compound 94] | 2000 to 5000 | > 100 |
| Cc1ccc(NC(=O)C2(c3ccc4c(c3)OC(F)(F)O4)CC2)nc1-c1cc[nH]c(=O)c1Cl [Compound 86] | < 2000 | > 100 |
| Cc1cc(NC(=O)C2(c3ccc4c(c3)OCC4)CC2)nc(-c2ccc(=O)[nH]c2)c1 [Compound 98] | < 2000 | 50 to 100 |
| Cc1cc(-c2nc(NC(=O)C3(c4ccc5c(c4)OC(F)(F)O5)CC3)ccc2C)cc(=O)[nH]1 [Compound 106] | < 2000 | > 100 |
| Cc1c[nH]c(=O)c(-c2nc(NC(=O)C3(c4ccc5c(c4)CCO5)CC3)ccc2C)c1 [Compound 83] | < 2000 | 50 to 100 |
| Cc1ccc(NC(=O)C2(c3ccc4c(c3)CCO4)CC2)nc1-c1c[nH]c(=O)c(C)c1 [Compound 76] | < 2000 | 50 to 100 |
| Cc1ccc(NC(=O)C2(c3ccc4c(c3)OC(F)(F)O4)CC2)nc1-c1c[nH]c(=O)c(C(=O)O)c1 [Compound 23] | 2000 to 5000 | 50 to 100 |
| COc1ncc(-c2nc(NC(=O)C3(c4ccc5c(c4)OC(F)(F)O5)CC3)ccc2C)cc1C(=O)O [Compound 53] | < 2000 | > 100 |
| COc1ncccc1-c1nc(NC(=O)C2(c3ccc4c(c3)OC(F)(F)O4)CC2)ccc1C [Compound 15] | < 2000 | > 100 |
| COc1ncc(-c2nc(NC(=O)C3(c4ccc5c(c4)OC(F)(F)O5)CC3)ccc2C)cc1F [Compound 43] | < 2000 | > 100 |
| Cc1ccc(NC(=O)C2(c3ccc4c(c3)OC(F)(F)O4)CC2)nc1-c1ccc(=O)[nH]c1C [Compound 40] | < 2000 | > 100 |

| Structure (SMILES) | EC50 [nM] | Emax [%] |
| --- | --- | --- |
| Cc1ccc(NC(=O)C2(c3ccc4c(c3)OCO4)CC2)nc1-c1ccc(=O)[nH]c1 [Compound 49] | < 2000 | 50 to 100 |
| Cc1cc(NC(=O)C2(c3ccc4c(c3)OC(F)(F)O4)CC2)nc(-c2cc(C)c[nH]c2=O)c1 [Compound 92] | < 2000 | 50 to 100 |
| CCOC(=O)NCCn1cc(-c2nc(NC(=O)C3(c4ccc5c(c4)OC(F)(F)O5)CC3)ccc2C)ccc1=O [Compound 81] | < 2000 | > 100 |
| CNC(=O)c1cc(-c2nc(NC(=O)C3(c4ccc5c(c4)OC(F)(F)O5)CC3)ccc2C)c[nH]c1=O [Compound 32] | 2000 to 5000 | 50 to 100 |
| Cc1cc(NC(=O)C2(c3ccc4c(c3)OC(F)(F)O4)CC2)nc(-c2cc[nH]c(=O)c2)c1C [Compound 67] | < 2000 | > 100 |
| Cc1cc(NC(=O)C2(c3ccc4c(c3)CCO4)CC2)nc(-c2ccc(=O)[nH]c2)c1C [Compound 112] | < 2000 | 50 to 100 |
| Cc1ccc(NC(=O)C2(c3ccc4c(c3)CCC4)CC2)nc1-c1ccc(=O)[nH]c1 [Compound 115] | < 2000 | 50 to 100 |
| Cc1ccc(NC(=O)C2(c3ccc4c(c3)OC(F)(F)O4)CC2)nc1-c1c[nH]c(=O)c(C#N)c1 [Compound 42] | < 2000 | 50 to 100 |
| Cc1ccc(NC(=O)C2(c3ccc4c(c3)OC(F)(F)O4)CC2)nc1-c1ccc[nH]c1=O [Compound 46] | < 2000 | 50 to 100 |
| Cc1ccc(NC(=O)C2(c3ccc4c(c3)OC(F)(F)O4)CC2)nc1-c1ccn(C)c(=O)c1 [Compound 41] | < 2000 | > 100 |
| Cc1ccc(NC(=O)C2(c3ccc4c(c3)OC(F)(F)O4)CC2)nc1-c1ccn(CC(=O)O)c(=O)c1 [Compound 47] | < 2000 | < 50 |
| COc1ncc(-c2nc(NC(=O)C3(c4ccc5c(c4)OC(F)(F)O5)CC3)cc(C)c2C)cc1C [Compound 104] | < 2000 | 50 to 100 |
| Cc1ccc(NC(=O)C2(c3ccc4c(c3)OCC4)CC2)nc1-c1ccc(=O)[nH]c1 [Compound 99] | < 2000 | > 100 |
| COc1ccc(-c2nc(NC(=O)C3(c4ccc5c(c4)OC(F)(F)O5)CC3)ccc2C)c(C)n1 [Compound 36] | < 2000 | > 100 |
| Cc1cc(NC(=O)C2(c3ccc4c(c3)OC(F)(F)O4)CC2)nc(-c2cc[nH]c(=O)c2)c1 [Compound 19] | < 2000 | > 100 |
| Cc1ccc(NC(=O)C2(c3ccc4c(c3)OC(F)(F)O4)CC2)nc1-c1c[nH]c(=O)c(C(N)=O)c1 [Compound 34] | 2000 to 5000 | 50 to 100 |
| COc1ccc(-c2nc(NC(=O)C3(c4ccc5c(c4)OC(F)(F)O5)CC3)ccc2C)cn1 [Compound 37] | < 2000 | > 100 |

Other lines, results leading:

| EC50 [nM] | Emax [%] | Structure (SMILES) |
| --- | --- | --- |
| < 2000 | > 100 | Cc1cc(NC(=O)C2(c3ccc4c(c3)OC(F)(F)O4)CC2)nc(-c2ccn(CCO)c(=O)c2)c1 [Compound 64] |
| < 2000 | 50 to 100 | Cc1cc(NC(=O)C2(c3ccc4c(c3)OC(F)(F)O4)CC2)nc(-c2ccc(=O)[nH]c2)c1C [Compound 65] |
| < 2000 | 50 to 100 | Cc1c[nH]c(=O)c(-c2nc(NC(=O)C3(c4ccc5c(c4)OC(F)(F)O5)CC3)ccc2C)c1 [Compound 31] |
| < 2000 | 50 to 100 | Cc1ccc(NC(=O)C2(c3ccc4c(c3)CCO4)CC2)nc1-c1ccc[nH]c1=O [Compound 84] |
| < 2000 | 50 to 100 | Cc1ccc(NC(=O)C2(c3ccc4c(c3)OC(F)(F)O4)CC2)nc1-c1ccc(=O)[nH]c1 [Compound 12] |
| < 2000 | > 100 | COc1ncc(C)cc1-c1nc(NC(=O)C2(c3ccc4c(c3)OC(F)(F)O4)CC2)cc(C)c1C [Compound 88] |
| < 2000 | > 100 | COc1ncc(C)cc1-c1cc(C)cc(NC(=O)C2(c3ccc4c(c3)OC(F)(F)O4)CC2)n1 [Compound 87] |
| < 2000 | 50 to 100 | Cc1cc(NC(=O)C2(c3ccc4c(c3)CCO4)CC2)nc(-c2cc[nH]c(=O)c2)c1 [Compound 70] |
| < 2000 | 50 to 100 | COc1cc(-c2nc(NC(=O)C3(c4ccc5c(c4)OC(F)(F)O5)CC3)ccc2C)c[nH]c1=O [Compound 21] |
| < 2000 | 50 to 100 | COc1cc(-c2nc(NC(=O)C3(c4ccc5c(c4)OC(F)(F)O5)CC3)ccc2C)cc(C)n1 [Compound 105] |
| < 2000 | 50 to 100 | Cc1ncc(NC(=O)C2(c3ccc4c(c3)OC(F)(F)O4)CC2)nc1-c1ccc(=O)[nH]c1 [Compound 55] |
| < 2000 | > 100 | Cc1cc(NC(=O)C2(c3ccc4c(c3)OC(F)(F)O4)CC2)nc(-c2c[nH]c(=O)cc2C)c1 [Compound 113] |
| < 2000 | > 100 | COc1cc(C)c(-c2nc(NC(=O)C3(c4ccc5c(c4)OC(F)(F)O5)CC3)ccc2C)cn1 [Compound 18] |
| < 2000 | 50 to 100 | CCc1ccc(NC(=O)C2(c3ccc4c(c3)OC(F)(F)O4)CC2)nc1-c1ccc(OC)nc1 [Compound 30] |
| < 2000 | 50 to 100 | COc1ncc(C)cc1-c1nc(NC(=O)C2(c3ccc4c(c3)OC(F)(F)O4)CC2)ccc1C [Compound 8] |
| < 2000 | 50 to 100 | Cc1ccc(NC(=O)C2(c3ccc4c(c3)OC(F)(F)O4)CC2)nc1-c1c[nH]c(=O)c(F)c1 [Compound 39] |

— patent publication US8969386B2, “Modulators of CFTR” (Vertex Pharmaceuticals Incorporated, priority 2007, dated 2015)
